Results from ChEMBL document CHEMBL1201862, “PubChem BioAssay data set” (2004).
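Growth conditions: 96-well plates. Treatment: test compound, 48 hours, 5 concentrations. Analysis: linear interpolation between bracketing concentrations; unreached endpoints set to highest concentration. GI50 is the concentration that inhibits growth by half.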 Activity calls are given as the source filed them. Cut-off read from the data, not from the text of the source: active = GI50 up to about 1.1 µM and inactive = higher.

Assays:
Assay in all cases: NCI-60 cell line screen, 48 h
[1] = tested on: PC-3
[2] = tested on: SW-620
[3] = tested on: Hs-578T
[4] = tested on: M14
[5] = tested on: CAKI-1
[6] = tested on: NCI-H226
[7] = tested on: BT-549
[8] = tested on: A498
[9] = tested on: UO-31
[10] = tested on: SK-OV-3
[11] = tested on: OVCAR-8
[12] = tested on: ACHN
[13] = tested on: NCI-H460
[14] = tested on: NCI/ADR-RES
[15] = tested on: IGROV-1
[16] = tested on: MDA-MB-231
[17] = tested on: HCC 2998
[18] = tested on: SF-539
[19] = tested on: SNB-75
[20] = tested on: RXF 393

Structure (SMILES) | GI50 [1] | GI50 [2] | GI50 [3] | GI50 [4] | GI50 [5] | GI50 [6] | GI50 [7] | GI50 [8] | GI50 [9] | GI50 [10] | GI50 [11] | GI50 [12] | GI50 [13] | GI50 [14] | GI50 [15] | GI50 [16] | GI50 [17] | GI50 [18] | GI50 [19] | GI50 [20]
Cc1cc(N)c2cc(NC(=O)Nc3ccc4nc(C)cc(N)c4c3)ccc2n1 | > 100 µM (inactive) | > 100 µM (inactive) | > 100 µM (inactive) | > 100 µM (inactive) | > 100 µM (inactive) | > 100 µM (inactive) | > 100 µM (inactive) | > 100 µM (inactive) | > 100 µM (inactive) | > 100 µM (inactive) | > 100 µM (inactive) | > 100 µM (inactive) | 32.4 µM (inactive) | > 100 µM (inactive) | > 100 µM (inactive) | 47.8 µM (inactive) | > 100 µM (inactive) |  |  | 
CN1c2ccccc2C2=C(c3ccccc3)CC[C@@H](C(=O)N3C4CC5CC[C@@]4(CS3(=O)=O)C5(C)C)[C@@H]21 (stereo not given in full) | 4.1 µM (inactive) | > 100 µM (inactive) | > 100 µM (inactive) | > 100 µM (inactive) | > 100 µM (inactive) | > 100 µM (inactive) | > 100 µM (inactive) | > 100 µM (inactive) | > 100 µM (inactive) | > 100 µM (inactive) | > 100 µM (inactive) | > 100 µM (inactive) | > 100 µM (inactive) | > 100 µM (inactive) | > 100 µM (inactive) | > 100 µM (inactive) |  | > 100 µM (inactive) | > 100 µM (inactive) | 
O=C1NC(Nc2ccccc2Cl)=N/C1=C\c1c(Cl)cccc1Cl | 25.1 µM (inactive) | 37.5 µM (inactive) | 28.8 µM (inactive) | 40.9 µM (inactive) | 27.8 µM (inactive) | 42.5 µM (inactive) | 34.1 µM (inactive) | 34.5 µM (inactive) | 20.7 µM (inactive) | 59.8 µM (inactive) | 31.6 µM (inactive) | 50.5 µM (inactive) | 24.9 µM (inactive) | 23.2 µM (inactive) | 25.8 µM (inactive) |  | 21.9 µM (inactive) | 51.5 µM (inactive) | 24.7 µM (inactive) | 23.4 µM (inactive)
NC(=S)NC/C=C/Cl | > 100 µM (inactive) | > 100 µM (inactive) | > 100 µM (inactive) | > 100 µM (inactive) | > 100 µM (inactive) | > 100 µM (inactive) | > 100 µM (inactive) |  | > 100 µM (inactive) | > 100 µM (inactive) | > 100 µM (inactive) | > 100 µM (inactive) | > 100 µM (inactive) | > 100 µM (inactive) | > 100 µM (inactive) | > 100 µM (inactive) |  |  | > 100 µM (inactive) | > 100 µM (inactive)
NC1Cc2ccccc2OC1=O (stereo not given) | > 100 µM (inactive) | > 100 µM (inactive) | > 100 µM (inactive) | > 100 µM (inactive) | > 100 µM (inactive) | > 100 µM (inactive) | > 100 µM (inactive) |  | > 100 µM (inactive) | > 100 µM (inactive) | > 100 µM (inactive) | > 100 µM (inactive) | > 100 µM (inactive) | > 100 µM (inactive) | > 100 µM (inactive) | > 100 µM (inactive) | > 100 µM (inactive) | > 100 µM (inactive) | > 100 µM (inactive) | > 100 µM (inactive)
Cc1nn(C(=O)Cc2ccccc2)c2c1C(c1ccc([N+](=O)[O-])cc1)SC(=N)N2 (stereo not given) | > 100 µM (inactive) | > 100 µM (inactive) | > 100 µM (inactive) | > 100 µM (inactive) | > 100 µM (inactive) |  | > 100 µM (inactive) | > 100 µM (inactive) |  | > 100 µM (inactive) | > 100 µM (inactive) | > 100 µM (inactive) | > 100 µM (inactive) |  | > 100 µM (inactive) | > 100 µM (inactive) | > 100 µM (inactive) | > 100 µM (inactive) |  | 
c1ccc(CN2CCC3(CC2)SSC2(CCN(Cc4ccccc4)CC2)S3)cc1 | > 100 µM (inactive) | > 100 µM (inactive) | 17.7 µM (inactive) | 66.5 µM (inactive) | 26.9 µM (inactive) |  | > 100 µM (inactive) |  | > 100 µM (inactive) | > 100 µM (inactive) | > 100 µM (inactive) | > 100 µM (inactive) | 25.6 µM (inactive) | > 100 µM (inactive) | > 100 µM (inactive) | > 100 µM (inactive) | 26.9 µM (inactive) | > 100 µM (inactive) | > 100 µM (inactive) | 
CC(C)[Si]1(C(C)C)OCC2OC3(CO)C(Oc4nc(=O)ccn43)C2O[Si](C(C)C)(C(C)C)O1 (stereo not given) | 5.4 µM (inactive) | 15.5 µM (inactive) | 22.4 µM (inactive) | 14.8 µM (inactive) | 15.7 µM (inactive) | 15.2 µM (inactive) | 11.6 µM (inactive) |  | 13.9 µM (inactive) | 20 µM (inactive) | 14.1 µM (inactive) | 15.5 µM (inactive) | 15 µM (inactive) | 17.4 µM (inactive) | 17.3 µM (inactive) | 10.2 µM (inactive) | 12.5 µM (inactive) | 15 µM (inactive) | 15 µM (inactive) | 5.57 µM (inactive)
CCOC(=O)Nn1cnnc1C | > 100 µM (inactive) | > 100 µM (inactive) |  | > 100 µM (inactive) | > 100 µM (inactive) | > 100 µM (inactive) | > 100 µM (inactive) | > 100 µM (inactive) | > 100 µM (inactive) | > 100 µM (inactive) | > 100 µM (inactive) | > 100 µM (inactive) | > 100 µM (inactive) | > 100 µM (inactive) | > 100 µM (inactive) | > 100 µM (inactive) | > 100 µM (inactive) | > 100 µM (inactive) |  | > 100 µM (inactive)
COc1cc(S(=O)(=O)Nc2ccc(-c3csc(/N=C\C=C\c4ccccc4)n3)cc2)ccc1Cl | 19.9 µM (inactive) | > 100 µM (inactive) | 87.3 µM (inactive) | 29.9 µM (inactive) | > 100 µM (inactive) | 24.2 µM (inactive) | 39.1 µM (inactive) | 20.6 µM (inactive) | 44.5 µM (inactive) | > 100 µM (inactive) | 34.8 µM (inactive) | 41.2 µM (inactive) | 0.0484 µM (active) | 59 µM (inactive) | 39.4 µM (inactive) |  | > 100 µM (inactive) | 22 µM (inactive) | > 100 µM (inactive) | 16.1 µM (inactive)
OC(c1ccc(F)cc1)C(F)(F)c1nc2ccccc2o1 (stereo not given) | > 100 µM (inactive) | > 100 µM (inactive) |  | > 100 µM (inactive) | 87.5 µM (inactive) | > 100 µM (inactive) | > 100 µM (inactive) | 34.4 µM (inactive) | > 100 µM (inactive) | > 100 µM (inactive) | 51.2 µM (inactive) | > 100 µM (inactive) | > 100 µM (inactive) | 51.4 µM (inactive) | > 100 µM (inactive) | 83.8 µM (inactive) | > 100 µM (inactive) | > 100 µM (inactive) | 21.6 µM (inactive) | 39.4 µM (inactive)
COC(=O)[C@@H]1CCc2nc3ccccc3c(=O)n21 |  | > 100 µM (inactive) | > 100 µM (inactive) | > 100 µM (inactive) | > 100 µM (inactive) | 93.1 µM (inactive) | > 100 µM (inactive) | > 100 µM (inactive) | > 100 µM (inactive) | > 100 µM (inactive) | > 100 µM (inactive) | > 100 µM (inactive) | > 100 µM (inactive) | > 100 µM (inactive) | > 100 µM (inactive) | > 100 µM (inactive) | > 100 µM (inactive) |  | > 100 µM (inactive) | 
O=C(OCc1ccccc1)C1(N2CN(C3(C(=O)OCc4ccccc4)CCCC3)CN(C3(C(=O)OCc4ccccc4)CCCC3)C2)CCCC1 | > 10 µM (inactive) | > 10 µM (inactive) | > 10 µM (inactive) | > 10 µM (inactive) | > 10 µM (inactive) | > 10 µM (inactive) | > 10 µM (inactive) |  | > 10 µM (inactive) | > 10 µM (inactive) | > 10 µM (inactive) | > 10 µM (inactive) | > 10 µM (inactive) | > 10 µM (inactive) | > 10 µM (inactive) | > 10 µM (inactive) | > 10 µM (inactive) | > 10 µM (inactive) | > 10 µM (inactive) | > 10 µM (inactive)
O=C(/C=C/c1ccc(C(F)(F)F)cc1)c1c([O-])on[n+]1-c1ccccc1 | 3.19 µM (inactive) | 1.37 µM (inactive) |  | 2.3 µM (inactive) | 0.288 µM (active) | 6 µM (inactive) | 1.59 µM (inactive) | 7.05 µM (inactive) | 1.91 µM (inactive) | 14.3 µM (inactive) | 1.92 µM (inactive) | 1.51 µM (inactive) | 2.29 µM (inactive) | 1.78 µM (inactive) | 1.86 µM (inactive) | 4.53 µM (inactive) | 1.98 µM (inactive) | 2.03 µM (inactive) | 2.07 µM (inactive) | 1.27 µM (inactive)
CN(C)CCNc1ccc([N+](=O)[O-])c2sc3ccccc3c(=O)c12 | 4.11 µM (inactive) | 2.43 µM (inactive) | 5.52 µM (inactive) | 6.71 µM (inactive) |  | 6.11 µM (inactive) | 2.1 µM (inactive) |  | 4.34 µM (inactive) | 7.71 µM (inactive) | 3.63 µM (inactive) | 2.51 µM (inactive) | 1.65 µM (inactive) | 3.44 µM (inactive) | 1.73 µM (inactive) | 1.99 µM (inactive) | 2.92 µM (inactive) | 3.65 µM (inactive) | 4.68 µM (inactive) | 14.4 µM (inactive)
